Source: patent publication US20260001889A1, “COMPOSITIONS USEFUL FOR MODULATING SPLICING” (Skyhawk Therapeutics, Inc., priority 2022, published 2026)

What was measured:
total ATXN3 protein = assay: ATXN3 Total Protein Assay (Mesoscale Discovery, SK-N-MC cells); type: cell-based, Human; conditions: incubation for 48 hours, MSD assay
In short: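 Human SK-N-MC neuroblastoma cells treated with compound at 30 μM to 0.6 nM for 48 h, then lysed with protease inhibitors. Total ATXN3 quantified by MSD sandwich immunoassay (mouse capture, rabbit detect antibodies, anti-rabbit MSD-ST secondary) against recombinant ATXN3 standards.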

ATXN3-HiBiT protein = assay: ATXN3 Total Protein Assay (Kelly-ATXN3-HiBiT luminescence); type: cell-based; conditions: Kelly-ATXN3-HiBiT cells, 48 h after addition of compound
In short: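 Kelly cells with homozygous C-terminal HiBiT knock-in on endogenous ATXN3, 2000 per well, dosed 24 h after seeding. HiBiT lytic luminescence read 48 h after compound; sister plate read with CellTiter-Glo for viability; fold change vs DMSO.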

[1] = test system: ATXN3 transcripts containing exon 4; assay: ATXN3 Quantitative Splicing Assay (qPCR, E4E5 primers/probe); type: cell-based; conditions: Homo sapiens, SK-N-MC cells, compounds for 24 h
In short: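 SK-N-MC human neuroblastoma cells treated 24 h with compound from 30 μM to 0.6 nM, 24 h after plating. Lysate cDNA was run in TaqMan qPCR, with primers/probe E4E5 detecting exon 4-containing ATXN3 transcripts and E8E9 measuring total ATXN3.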

SMILES | IC50 (total ATXN3 protein) [nM] | EC50 (ATXN3-HiBiT protein) [nM] | IC50 [1] [nM]
C[C@H](F)[C@H](N)Cc1oc2c(NCc3nccs3)cc(Cl)nc2c1Cl [Compound 109, 2-[(2R,3S)-2-amino-3-fluorobutyl]-3,5-dichloro-7-{[(1,3-thiazol-2-yl)methyl]amino}-1-oxa-4-azaindene] | 0.01 to 100 | 101 to 500 | 0.01 to 100
C[C@H](F)[C@H](N)Cc1oc2c(NCc3ccccc3)cc(Cl)nc2c1Cl [Compound 110, 2-[(2R,3S)-2-amino-3-fluorobutyl]-7-benzylamino-3,5-dichloro-1-oxa-4-azaindene] | 101 to 500 | 101 to 500 | 101 to 500
Cc1c(C[C@@H](N)[C@H](C)F)oc2c(NCc3cccs3)cc(C#N)nc12 [Compound 111, 2-[(2R,3S)-2-amino-3-fluorobutyl]-3-methyl-7-thenylamino-1-oxa-4-aza-5-indenecarbonitrile] | 101 to 500 | 101 to 500 | 101 to 500
C#Cc1cc(NCc2ccco2)c2oc(C[C@H](C)N)c(Br)c2n1 [Compound 112, 2-[(S)-2-aminopropyl]-3-bromo-5-ethynyl-7-(furfurylamino)-1-oxa-4-azaindene] | 101 to 500 | 0.01 to 100 | 101 to 500
COC[C@H](N)Cc1oc2c(NCc3ccncc3)cc(Cl)nc2c1Cl [Compound 113, 2-[(R)-2-amino-3-methoxypropyl]-3,5-dichloro-7-{[(4-pyridyl)methyl]amino}-1-oxa-4-azaindene] | 101 to 500 | 101 to 500 | 101 to 500
C[C@@H](F)[C@H](N)Cc1oc2c(NCc3ccco3)cc(Cl)nc2c1Br [Compound 114, 2-[(2R,3R)-2-amino-3-fluorobutyl]-3-bromo-5-chloro-7-(furfurylamino)-1-oxa-4-azaindene] | 501 to 5000 | 501 to 5000 | 501 to 5000
N[C@@H](COC1CC1)Cc1oc2c(NCc3cccs3)cc(Cl)nc2c1Br [Compound 115, 2-[(R)-2-amino-3-cyclopropoxypropyl]-3-bromo-5-chloro-7-thenylamino-1-oxa-4-azaindene] | 101 to 500 | 101 to 500 | 101 to 500
N[C@@H](COC(F)(F)F)Cc1oc2c(NCc3cccs3)cc(Cl)nc2c1Br [Compound 116, 2-[(R)-2-amino-3-trifluoromethoxypropyl]-3-bromo-5-chloro-7-thenylamino-1-oxa-4-azaindene] | 101 to 500 | 501 to 5000 | 101 to 500
N[C@@H](COC(F)F)Cc1oc2c(NCc3cccs3)cc(Cl)nc2c1Br [Compound 117, 2-[(R)-2-amino-3-difluoromethoxypropyl]-3-bromo-5-chloro-7-thenylamino-1-oxa-4-azaindene] | 0.01 to 100 | 0.01 to 100 | 0.01 to 100
C[C@H](F)[C@H](N)Cc1oc2c(NCc3ccco3)cc(Cl)nc2c1Br [Compound 118, 2-[(2R,3S)-2-amino-3-fluorobutyl]-3-bromo-5-chloro-7-(furfurylamino)-1-oxa-4-azaindene] | 0.01 to 100 | 0.01 to 100 | 0.01 to 100
C[C@H](F)[C@H](N)Cc1oc2c(NCc3ccncc3)cc(Cl)nc2c1Br [Compound 119, 2-[(2R,3S)-2-amino-3-fluorobutyl]-3-bromo-5-chloro-7-{[(4-pyridyl)methyl]amino}-1-oxa-4-azaindene] | 0.01 to 100 | 101 to 500 | 0.01 to 100
C#Cc1c(C[C@@H](N)CC(F)(F)F)oc2c(NCc3ccco3)cc(Cl)nc12 [Compound 120, 2-[(R)-2-amino-4,4,4-trifluorobutyl]-5-chloro-3-ethynyl-7-(furfurylamino)-1-oxa-4-azaindene] | 101 to 500 | 501 to 5000 | 101 to 500
C#Cc1c(C[C@@H](N)CC(F)(F)F)oc2c(NCc3cccs3)cc(Cl)nc12 [Compound 121, 2-[(R)-2-amino-4,4,4-trifluorobutyl]-5-chloro-3-ethynyl-7-thenylamino-1-oxa-4-azaindene] | 101 to 500 | 101 to 500 | 101 to 500
C#Cc1c(C[C@@H](N)[C@H](C)F)oc2c(NCc3ccco3)cc(Cl)nc12 [Compound 122, 2-[(2R,3S)-2-amino-3-fluorobutyl]-5-chloro-3-ethynyl-7-(furfurylamino)-1-oxa-4-azaindene] | 0.01 to 100 | 0.01 to 100 | 0.01 to 100
C#Cc1c(C[C@@H](N)[C@H](C)F)oc2c(NCc3cccs3)cc(Cl)nc12 [Compound 123, 2-[(2R,3S)-2-amino-3-fluorobutyl]-5-chloro-3-ethynyl-7-thenylamino-1-oxa-4-azaindene] | 0.01 to 100 | 0.01 to 100 | 0.01 to 100
C[C@H](N)Cc1oc2c(NCc3ncco3)cc(Cl)nc2c1Br [Compound 124, 2-[(2S)-2-aminopropyl]-3-bromo-5-chloro-N-(1,3-oxazol-2-ylmethyl) furo[3,2-b]pyridin-7-amine] | 501 to 5000 | 501 to 5000 | 501 to 5000

SMILES | IC50 (total ATXN3 protein) [nM] | EC50 (ATXN3-HiBiT protein) [nM] | IC50 [1] [nM]
C[C@H](O)[C@H](N)Cc1oc2c(NCc3cccs3)cc(Cl)nc2c1Br [Compound 125, (2S,3R)-3-amino-4-(3-bromo-5-chloro-7-thenylamino-1-oxa-4-aza-2-indenyl)-2-butanol] | 0.01 to 100 | 0.01 to 100 | 0.01 to 100
C[C@@H](O)[C@H](N)Cc1oc2c(NCc3cccs3)cc(Cl)nc2c1Br [Compound 126, (2R,3R)-3-amino-4-(3-bromo-5-chloro-7-thenylamino-1-oxa-4-aza-2-indenyl)-2-butanol] | 101 to 500 | 101 to 500 | 101 to 500
N[C@@H](CCO)Cc1oc2c(NCc3cccs3)cc(Cl)nc2c1Br [Compound 131, (S)-3-amino-4-(3-bromo-5-chloro-7-thenylamino-1-oxa-4-aza-2-indenyl)-1-butanol] | 0.01 to 100 | 0.01 to 100 | 101 to 500
CC#C[C@H](N)Cc1oc2c(NCc3cccs3)cc(Cl)nc2c1Br [Compound 132, 2-[(R)-2-amino-3-pentynyl]-3-bromo-5-chloro-7-thenylamino-1-oxa-4-azaindene] | 101 to 500 | 501 to 5000 | 501 to 5000
N[C@H](Cc1oc2c(NCc3cccs3)cc(Cl)nc2c1Br)C1CC(F)(F)C1 [Compound 133, 2-[(R)-2-amino-2-(3,3-difluorocyclobutyl)ethyl]-3-bromo-5-chloro-7-thenylamino-1-oxa-4-azaindene] | 501 to 5000 | 501 to 5000 | 501 to 5000
N[C@H](Cc1oc2c(NCc3cccs3)cc(Cl)nc2c1Br)C1CC1 [Compound 134, 2-[(R)-2-amino-2-cyclopropylethyl]-3-bromo-5-chloro-7-thenylamino-1-oxa-4-azaindene] | 501 to 5000 | 501 to 5000 | 501 to 5000
C#Cc1c(C[C@@H](N)C2CC(F)(F)C2)oc2c(NCc3cccs3)cc(Cl)nc12 [Compound 139, 2-[(R)-2-amino-2-(3,3-difluorocyclobutyl)ethyl]-5-chloro-3-ethynyl-7-thenylamino-1-oxa-4-azaindene] | 501 to 5000 | 501 to 5000 | 501 to 5000
C[C@H](F)[C@H](N)Cc1oc2c(NCc3sccc3F)cc(Cl)nc2c1Cl [Compound 140, 2-[(2R,3S)-2-amino-3-fluorobutyl]-3,5-dichloro-7-{[(3-fluoro-2-thienyl)methyl]amino}-1-oxa-4-azaindene] | 101 to 500 | 101 to 500 | 101 to 500
Cc1c(C[C@@H](N)[C@H](C)F)oc2c(NCc3sccc3F)cc(Cl)nc12 [Compound 142, 2-[(2R,3S)-2-amino-3-fluorobutyl]-5-chloro-7-{[(3-fluoro-2-thienyl)methyl]amino}-3-methyl-1-oxa-4-azaindene] | 101 to 500 | 101 to 500 | 101 to 500
N[C@@H](CCF)Cc1oc2c(NCc3cccs3)cc(Cl)nc2c1Br [Compound 145, 2-[(R)-2-amino-4-fluorobutyl]-3-bromo-5-chloro-7-thenylamino-1-oxa-4-azaindene] | 101 to 500 | 101 to 500 | 101 to 500
C[C@H](F)[C@H](N)Cc1oc2c(NCc3cccs3)cc(Cl)nc2c1Cl [Compound 148, 2-[(2R,3S)-2-amino-3-fluorobutyl]-3,5-dichloro-7-thenylamino-1-oxa-4-azaindene] | 0.01 to 100 | 0.01 to 100 | 0.01 to 100
C[C@H](F)[C@H](N)Cc1oc2c(NCc3ccncc3F)cc(Cl)nc2c1Cl [Compound 149, 2-[(2R,3S)-2-amino-3-fluorobutyl]-3,5-dichloro-7-{[(3-fluoro-4-pyridyl)methyl]amino}-1-oxa-4-azaindene] | 101 to 500 | 101 to 500 | 101 to 500
C[C@H](F)[C@H](N)Cc1oc2c(NCc3ccco3)cc(Cl)nc2c1Cl [Compound 150, 2-[(2R,3S)-2-amino-3-fluorobutyl]-3,5-dichloro-7-(furfurylamino)-1-oxa-4-azaindene] | 0.01 to 100 | 0.01 to 100 | 0.01 to 100
C#Cc1cc(NCc2cccs2)c2oc(C[C@@H](N)COC)c(Br)c2n1 [Compound 151, 2-[(R)-2-amino-3-methoxypropyl]-3-bromo-5-ethynyl-7-thenylamino-1-oxa-4-azaindene] | 101 to 500 | 0.01 to 100 | 0.01 to 100
C[C@H](F)[C@H](N)Cc1oc2c(NCc3ccccc3F)cc(Cl)nc2c1Br [Compound 152, 2-[(2R,3S)-2-amino-3-fluorobutyl]-3-bromo-5-chloro-7-{[(o-fluorophenyl)methyl]amino}-1-oxa-4-azaindene] | 101 to 500 | 501 to 5000 | 101 to 500
